Experimental data: patent publication US20050176739A1, “Therapeutic agent for eating disorders” (priority 1999, published 2005)
One block for each compound: values may come before it.

How the values were obtained:
Crj:CD (SD) rats [1] = assay: Action of increasing feed intake by 4-week oral administration (Test Example 1); assay type: in vivo, rat
Method: Action of Increasing Feed Intake by 4-Week Oral Administration
Compound 1 was suspended in a 0.5% aqueous methyl cellulose solution to a final concentration of 0.6 mg/mL for 6 mg/kg dose, 3 mg/mL for 30 mg/kg dose, 16 mg/mL for 160 mg/kg dose, or 80 mg/mL for 800 mg/kg dose, and the resulting solution was used.
Male and female Crj:CD (SD) rats (SPF) at the age of 5 weeks were purchased from Nippon Charles River Co., Ltd., and were then fed and conditioned for 9 days. During the term, their body weight change and conditions were observed, and animals determined as in healthy conditions were used at the test. At the start of the use, the body weights of the male animals were within a range of 187 to 209 g, while those of the female animals were within a range of 147 to 173 g. During both of the conditioning and feeding term and the test term, the animals were fed with a solid feed for mouse and rat (CRF-1 15 kGy, Oriental Yeast Industry, Co., Ltd.) and with water, ad libitum.
(§1) As to the number of the animals used, 15 each of male and female animals were used for each group. As a negative control group, a group administered a 0.5% aqueous methyl cellulose solution alone was prepared. Based on the body weight at the termination of the conditioning and feeding term, the animals were randomly assigned to individual groups, so that the body weights were uniformly distributed among the resulting individual groups.
Oral administration was selected as the administration route. The solvent or a test compound-containing solution was administered once daily in the morning for 4 weeks in a dose of 1 mL per 100 g of body weight.
The feed intake of the test animals was measured on days 7, 14, 21 and 28. The measured values were tested for homoscedasticity by the Bartlett's test. When the variance was homogeneous, one-way layout analysis of variance was performed; in the case that significance was observed, herein, the control group and the individual dosed groups were tested by the Dunnett's test. When the variance was not homogeneous, the Kruskal-Wallis's rank test was performed; in the case that significance was observed among the groups, the Dunnett's test was conducted.

[2] = Body weight change by 4-week oral administration (Test Example 2); assay type: in vivo, rat
Method: (§2) Action of Increasing Feed Intake and Body Weight by 4-Week Oral Administration
(§3) Compound 1 was suspended in a 0.5% aqueous methyl cellulose solution to a final concentration of 20 mg/mL for 200 mg/kg dose or 40 mg/mL for 400 mg/kg dose, and the resulting solution was used.
(§4) Male and female Crj:CD (SD) rats (SPF) at the age 5 of weeks were purchased from Nippon Charles River Co., Ltd., and were then fed and conditioned for 7 days. During the term, their body weight change and conditions were observed, and animals determined as in healthy conditions were used at the test. At the start of the use, the body weights of the male animals were within a range of 177.4 to 193.6 g, while those of the female animals were within a range of 141.1 to 160.3 g. During both of the conditioning and feeding term and the test term, the animals were fed with a solid feed for mouse and rat [FR-2, Funabashi Agricultural Farm Co., Ltd.] and with water ad libitum.
as §1, with “5” for “15”
(§5) Oral administration was selected as the administration route. The solvent or the test compound was administered once daily in the morning for 4 weeks in a dose of 1 mL per 100 g of body weight.
(§6) The body weights and feed intake of the test animals were measured on days 0, 7, 14, 21 and 28. The individual measured values were tested, based on the same standards as in the […].

Crj:CD (SD) rats [3] = assay: Feed intake change by 4-week oral administration (Test Example 2); assay type: in vivo, rat
Method: as §2, §3, §4
as §1, with “5” for “15”
as §5, §6

dd-strain male mice = assay: Acute toxicity test; assay type: in vivo, mouse; conditions: oral administration, mortality seven days after administration
From the text: Test compounds were orally administered to groups of dd-strain male mice weighing 20±1 g, each group consisting of three mice.

[4] = 4-week oral administration, male and female rats
[5] = female rats, 200 mg/kg po once daily, day 0
[6] = female rats, 200 mg/kg po once daily, day 7
[7] = female rats, 200 mg/kg po once daily, day 14
[8] = female rats, 200 mg/kg po once daily, day 21
[9] = female rats, 200 mg/kg po once daily, day 28
[10] = female rats, 400 mg/kg po once daily, day 0
[11] = female rats, 400 mg/kg po once daily, day 7
[12] = female rats, 400 mg/kg po once daily, day 14
[13] = female rats, 400 mg/kg po once daily, day 21
[14] = female rats, 400 mg/kg po once daily, day 28
[15] = male rats, 200 mg/kg po once daily, day 0
[16] = male rats, 200 mg/kg po once daily, day 7
[17] = male rats, 200 mg/kg po once daily, day 14
[18] = male rats, 200 mg/kg po once daily, day 21
[19] = male rats, 200 mg/kg po once daily, day 28
[20] = male rats, 400 mg/kg po once daily, day 0
[21] = male rats, 400 mg/kg po once daily, day 7
[22] = male rats, 400 mg/kg po once daily, day 14
[23] = male rats, 400 mg/kg po once daily, day 21
[24] = male rats, 400 mg/kg po once daily, day 28

SMILES: CCn1c(=O)c2c(nc(/C=C/c3ccc(OC)c(OC)c3)n2C)n(CC)c1=O [Compound 1, (E)-8-(3,4-dimethoxystyryl)-1,3-diethyl-7-methylxanthine]
- effect on feed intake (in words) (Crj:CD (SD) rats [1]; [4]): increased the feed intake both in the males and in the females
- Feed intake (g ± SD) (Crj:CD (SD) rats [1]; female rats, 6 mg/kg po once daily, day 7): 15.93 ± 1.09 g
- Feed intake (g ± SD) (Crj:CD (SD) rats [1]; female rats, 6 mg/kg po once daily, day 14): 18.03 ± 1.37 g
- Feed intake (g ± SD) (Crj:CD (SD) rats [1]; female rats, 6 mg/kg po once daily, day 21): 18.76 ± 1.18 g
- Feed intake (g ± SD) (Crj:CD (SD) rats [1]; female rats, 6 mg/kg po once daily, day 28): 18.80 ± 1.46 g
- Feed intake (g ± SD) (Crj:CD (SD) rats [1]; female rats, 30 mg/kg po once daily, day 7): 17.24 ± 1.19 g
- Feed intake (g ± SD) (Crj:CD (SD) rats [1]; female rats, 30 mg/kg po once daily, day 14): 19.38 ± 1.74 g
- Feed intake (g ± SD) (Crj:CD (SD) rats [1]; female rats, 30 mg/kg po once daily, day 21): 19.93 ± 2.08 g
- Feed intake (g ± SD) (Crj:CD (SD) rats [1]; female rats, 30 mg/kg po once daily, day 28): 20.50 ± 1.96 g
- Feed intake (g ± SD) (Crj:CD (SD) rats [1]; female rats, 160 mg/kg po once daily, day 7): 17.73 ± 1.40 g
- Feed intake (g ± SD) (Crj:CD (SD) rats [1]; female rats, 160 mg/kg po once daily, day 14): 19.56 ± 1.68 g
- Feed intake (g ± SD) (Crj:CD (SD) rats [1]; female rats, 160 mg/kg po once daily, day 21): 20.56 ± 1.73 g
- Feed intake (g ± SD) (Crj:CD (SD) rats [1]; female rats, 160 mg/kg po once daily, day 28): 20.87 ± 2.04 g
- Feed intake (g ± SD) (Crj:CD (SD) rats [1]; female rats, 800 mg/kg po once daily, day 7): 17.30 ± 0.99 g
- Feed intake (g ± SD) (Crj:CD (SD) rats [1]; female rats, 800 mg/kg po once daily, day 14): 19.19 ± 1.44 g
- Feed intake (g ± SD) (Crj:CD (SD) rats [1]; female rats, 800 mg/kg po once daily, day 21): 20.43 ± 1.69 g
- Feed intake (g ± SD) (Crj:CD (SD) rats [1]; female rats, 800 mg/kg po once daily, day 28): 21.13 ± 1.76 g
- Feed intake (g ± SD) (Crj:CD (SD) rats [1]; male rats, 6 mg/kg po once daily, day 7): 21.45 ± 1.28 g
- Feed intake (g ± SD) (Crj:CD (SD) rats [1]; male rats, 6 mg/kg po once daily, day 14): 23.97 ± 1.21 g
- Feed intake (g ± SD) (Crj:CD (SD) rats [1]; male rats, 6 mg/kg po once daily, day 21): 24.96 ± 1.58 g
- Feed intake (g ± SD) (Crj:CD (SD) rats [1]; male rats, 6 mg/kg po once daily, day 28): 25.23 ± 1.80 g
- Feed intake (g ± SD) (Crj:CD (SD) rats [1]; male rats, 30 mg/kg po once daily, day 7): 23.54 ± 2.15 g
- Feed intake (g ± SD) (Crj:CD (SD) rats [1]; male rats, 30 mg/kg po once daily, day 14): 26.12 ± 2.03 g
- Feed intake (g ± SD) (Crj:CD (SD) rats [1]; male rats, 30 mg/kg po once daily, day 21): 27.03 ± 2.07 g
- Feed intake (g ± SD) (Crj:CD (SD) rats [1]; male rats, 30 mg/kg po once daily, day 28): 27.37 ± 2.56 g
- Feed intake (g ± SD) (Crj:CD (SD) rats [1]; male rats, 160 mg/kg po once daily, day 7): 23.94 ± 1.58 g
- Feed intake (g ± SD) (Crj:CD (SD) rats [1]; male rats, 160 mg/kg po once daily, day 14): 26.20 ± 1.77 g
- Feed intake (g ± SD) (Crj:CD (SD) rats [1]; male rats, 160 mg/kg po once daily, day 21): 27.31 ± 1.74 g
- Feed intake (g ± SD) (Crj:CD (SD) rats [1]; male rats, 160 mg/kg po once daily, day 28): 27.81 ± 2.47 g
- Feed intake (g ± SD) (Crj:CD (SD) rats [1]; male rats, 800 mg/kg po once daily, day 7): 22.84 ± 1.81 g
- Feed intake (g ± SD) (Crj:CD (SD) rats [1]; male rats, 800 mg/kg po once daily, day 14): 25.40 ± 2.42 g
- Feed intake (g ± SD) (Crj:CD (SD) rats [1]; male rats, 800 mg/kg po once daily, day 21): 26.67 ± 2.19 g
- Feed intake (g ± SD) (Crj:CD (SD) rats [1]; male rats, 800 mg/kg po once daily, day 28): 27.03 ± 2.37 g
- effect on body weight (in words) [2, 4]: increased the feed intake and body weight
- Body weight (g ± SD) [2, 5]: 151.0 ± 5.7 g
- Body weight (g ± SD) [2, 6]: 178.6 ± 7.6 g
- Body weight (g ± SD) [2, 7]: 206.0 ± 7.1 g
- Body weight (g ± SD) [2, 8]: 232.5 ± 13.4 g
- Body weight (g ± SD) [2, 9]: 255.7 ± 17.3 g
- Body weight (g ± SD) [2, 10]: 152.9 ± 4.5 g
- Body weight (g ± SD) [2, 11]: 178.1 ± 3.3 g
- Body weight (g ± SD) [2, 12]: 207.8 ± 11.5 g
- Body weight (g ± SD) [2, 13]: 236.5 ± 16.3 g
- Body weight (g ± SD) [2, 14]: 259.3 ± 14.3 g
- Body weight (g ± SD) [2, 15]: 191.2 ± 2.4 g
- Body weight (g ± SD) [2, 16]: 247.3 ± 4.8 g
- Body weight (g ± SD) [2, 17]: 313.5 ± 12.1 g
- Body weight (g ± SD) [2, 18]: 371.5 ± 23.9 g
- Body weight (g ± SD) [2, 19]: 419.2 ± 28.0 g
- Body weight (g ± SD) [2, 20]: 189.5 ± 4.4 g
- Body weight (g ± SD) [2, 21]: 242.5 ± 10.7 g
- Body weight (g ± SD) [2, 22]: 304.8 ± 15.7 g
- Body weight (g ± SD) [2, 23]: 361.9 ± 23.8 g
- Body weight (g ± SD) [2, 24]: 415.6 ± 29.2 g
- effect on feed intake (in words) (Crj:CD (SD) rats [3]; [4]): increased the feed intake
- Feed intake (g ± SD) (Crj:CD (SD) rats [3]; [5]): 13.4 ± 1.7 g
- Feed intake (g ± SD) (Crj:CD (SD) rats [3]; [6]): 20.2 ± 1.7 g
- Feed intake (g ± SD) (Crj:CD (SD) rats [3]; [7]): 21.8 ± 1.7 g
- Feed intake (g ± SD) (Crj:CD (SD) rats [3]; [8]): 20.9 ± 2.6 g
- Feed intake (g ± SD) (Crj:CD (SD) rats [3]; [9]): 23.8 ± 3.0 g
- Feed intake (g ± SD) (Crj:CD (SD) rats [3]; [10]): 14.6 ± 1.7 g
- Feed intake (g ± SD) (Crj:CD (SD) rats [3]; [11]): 19.5 ± 2.2 g
- Feed intake (g ± SD) (Crj:CD (SD) rats [3]; [12]): 21.1 ± 2.9 g
- Feed intake (g ± SD) (Crj:CD (SD) rats [3]; [13]): 22.0 ± 2.6 g
- Feed intake (g ± SD) (Crj:CD (SD) rats [3]; [14]): 24.5 ± 2.5 g
- Feed intake (g ± SD) (Crj:CD (SD) rats [3]; [15]): 20.1 ± 1.0 g
- Feed intake (g ± SD) (Crj:CD (SD) rats [3]; [16]): 28.4 ± 1.5 g
- Feed intake (g ± SD) (Crj:CD (SD) rats [3]; [17]): 29.9 ± 1.6 g
- Feed intake (g ± SD) (Crj:CD (SD) rats [3]; [18]): 30.2 ± 3.5 g
- Feed intake (g ± SD) (Crj:CD (SD) rats [3]; [19]): 31.0 ± 1.1 g
- Feed intake (g ± SD) (Crj:CD (SD) rats [3]; [20]): 20.7 ± 1.2 g
- Feed intake (g ± SD) (Crj:CD (SD) rats [3]; [21]): 27.9 ± 2.5 g
- Feed intake (g ± SD) (Crj:CD (SD) rats [3]; [22]): 30.2 ± 3.8 g
- Feed intake (g ± SD) (Crj:CD (SD) rats [3]; [23]): 30.3 ± 3.9 g
- Feed intake (g ± SD) (Crj:CD (SD) rats [3]; [24]): 34.8 ± 4.4 g
- minimum lethal dose (MLD) (dd-strain male mice): greater than 1000 mg/kg

- melting point: 201.5 to 202.3 °C
SMILES: CCn1c(=O)c2c(nc(/C=C/c3cc(OC)c4c(c3)OCO4)n2C)n(CC)c1=O [Compound 3, (E)-1,3-diethyl-8-(3-methoxy-4,5-methylenedioxystyryl)-7-methylxanthine]
